This is an account of results in ChEMBL document CHEMBL1201862, “PubChem BioAssay data set” (2004).

The source made the active and inactive calls.

Experiment [1] addresses Heat shock protein HSP 90-alpha (Homo sapiens, UniProt P07900). It counts as functional, organism-based.
The target in experiment [2] is T1, High affinity choline transporter 1 (Homo sapiens, UniProt Q9GZV3).
T1 sequence (Q9GZV3 whole entry): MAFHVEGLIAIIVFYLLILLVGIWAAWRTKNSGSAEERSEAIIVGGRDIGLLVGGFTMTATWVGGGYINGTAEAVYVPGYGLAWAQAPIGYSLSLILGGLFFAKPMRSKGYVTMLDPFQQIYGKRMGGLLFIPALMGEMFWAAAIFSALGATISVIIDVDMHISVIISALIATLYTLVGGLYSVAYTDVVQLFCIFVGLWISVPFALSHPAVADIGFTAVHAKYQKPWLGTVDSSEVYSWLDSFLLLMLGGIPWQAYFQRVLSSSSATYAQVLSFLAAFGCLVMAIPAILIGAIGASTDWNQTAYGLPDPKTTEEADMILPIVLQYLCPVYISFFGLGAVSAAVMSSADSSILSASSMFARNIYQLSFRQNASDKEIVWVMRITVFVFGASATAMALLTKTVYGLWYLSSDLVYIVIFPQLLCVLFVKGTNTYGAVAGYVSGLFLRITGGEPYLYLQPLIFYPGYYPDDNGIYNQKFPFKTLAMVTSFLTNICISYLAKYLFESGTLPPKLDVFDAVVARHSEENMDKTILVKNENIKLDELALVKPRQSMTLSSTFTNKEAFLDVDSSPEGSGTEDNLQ
Put plainly: CHT inhibitors, dose response, cell-based, 5-point CRC, membrane potential dye (AID 504840). The experiment is classed as functional.

The target in experiment [3] is Large T antigen (Simian virus 40, UniProt P03070). The experiment is classed as functional, Betapolyomavirus macacae.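 Further: Confirmatory-stage PubChem screen for compounds that inhibit SV40 T antigen.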
The target of experiment [4] is T2, Rac GTPase-activating protein 1 (Homo sapiens, UniProt Q9H0H5).
T2 sequence (Q9H0H5 whole entry): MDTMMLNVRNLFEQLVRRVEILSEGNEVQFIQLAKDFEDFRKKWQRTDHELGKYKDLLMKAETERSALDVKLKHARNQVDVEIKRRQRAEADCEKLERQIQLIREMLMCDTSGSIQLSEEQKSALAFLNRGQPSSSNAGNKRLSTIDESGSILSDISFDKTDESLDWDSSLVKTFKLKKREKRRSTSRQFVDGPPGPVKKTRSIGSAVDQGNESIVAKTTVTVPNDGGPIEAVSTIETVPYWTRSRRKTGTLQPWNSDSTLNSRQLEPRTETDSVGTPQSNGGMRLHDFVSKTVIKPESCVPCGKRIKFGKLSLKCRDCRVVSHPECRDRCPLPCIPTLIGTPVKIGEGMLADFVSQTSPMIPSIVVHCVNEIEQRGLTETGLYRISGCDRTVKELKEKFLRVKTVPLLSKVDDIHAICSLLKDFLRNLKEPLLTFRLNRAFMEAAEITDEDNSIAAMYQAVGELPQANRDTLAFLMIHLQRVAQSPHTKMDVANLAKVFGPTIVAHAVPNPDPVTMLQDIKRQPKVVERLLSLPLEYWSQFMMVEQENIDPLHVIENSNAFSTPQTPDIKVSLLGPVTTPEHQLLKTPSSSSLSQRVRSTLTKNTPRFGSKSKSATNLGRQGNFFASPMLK
Put plainly: MgcRacGAP GTPase-activating activity inhibitors, confirmation, biochemical, ADP Hunter fluorescence, primary and confirmatory (AID 624330). The experiment is classed as functional.

Experiment [5] deals with T3, Streptokinase A (Streptococcus pyogenes serotype M1, UniProt P10520).
T3 sequence (P10520 whole entry): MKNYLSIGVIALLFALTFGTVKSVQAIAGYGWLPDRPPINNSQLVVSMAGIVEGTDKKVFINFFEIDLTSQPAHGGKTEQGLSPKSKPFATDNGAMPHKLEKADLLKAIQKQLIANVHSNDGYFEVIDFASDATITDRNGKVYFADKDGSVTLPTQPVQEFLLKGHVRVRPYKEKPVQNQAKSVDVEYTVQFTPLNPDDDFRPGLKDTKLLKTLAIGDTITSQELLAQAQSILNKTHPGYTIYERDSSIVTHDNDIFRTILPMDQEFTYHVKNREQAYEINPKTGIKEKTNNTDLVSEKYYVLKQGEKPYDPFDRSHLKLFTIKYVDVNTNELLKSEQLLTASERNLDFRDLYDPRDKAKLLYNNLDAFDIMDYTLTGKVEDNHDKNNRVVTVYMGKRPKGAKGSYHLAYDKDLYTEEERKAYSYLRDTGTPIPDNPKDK
Nature of the experiment: S. pyogenes streptokinase expression inhibitors, potency, dose response, plasminogen activation absorbance, OD405 (AID 1914).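 Further: secreted streptokinase activity via plasminogen activation per viability signal from cell pellet.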 It counts as functional, Streptococcus pyogenes M1 GAS.

Experiment [6] concerns the target FAD-linked sulfhydryl oxidase ALR (Homo sapiens, UniProt P55789). Nature of the experiment: inhibitors of human ALR sulfhydryl oxidase, dose response, biochemical, H2O2 detection, luminescence, cherry-pick (AID 493248).
In experiment [7] the target is Induced myeloid leukemia cell differentiation protein Mcl-1 (Homo sapiens, UniProt Q07820). The experiment is classed as functional.
In experiment [8] the target is T4, Carboxy-terminal domain RNA polymerase II polypeptide A small phosphatase 1 (Homo sapiens, UniProt Q9GZU7).
T4 sequence (Q9GZU7 whole entry): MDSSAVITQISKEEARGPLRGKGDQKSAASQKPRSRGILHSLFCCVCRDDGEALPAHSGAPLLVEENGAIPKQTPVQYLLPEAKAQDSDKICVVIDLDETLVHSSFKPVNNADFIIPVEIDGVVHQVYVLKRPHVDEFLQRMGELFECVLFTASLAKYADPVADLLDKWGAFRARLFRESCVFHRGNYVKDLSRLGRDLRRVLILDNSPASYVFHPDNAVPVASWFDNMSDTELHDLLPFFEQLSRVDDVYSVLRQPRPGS
Put plainly: inhibitors of CTDSP1, concentration-response testing, biochemical assay, absorbance-based, actives from ultra-high-throughput screening (AID 540297). The experiment is classed as functional.

Experiment [9] deals with T5, RNA-binding protein pos-1 (Caenorhabditis elegans, UniProt G5EF15).
T5 sequence (G5EF15 whole entry): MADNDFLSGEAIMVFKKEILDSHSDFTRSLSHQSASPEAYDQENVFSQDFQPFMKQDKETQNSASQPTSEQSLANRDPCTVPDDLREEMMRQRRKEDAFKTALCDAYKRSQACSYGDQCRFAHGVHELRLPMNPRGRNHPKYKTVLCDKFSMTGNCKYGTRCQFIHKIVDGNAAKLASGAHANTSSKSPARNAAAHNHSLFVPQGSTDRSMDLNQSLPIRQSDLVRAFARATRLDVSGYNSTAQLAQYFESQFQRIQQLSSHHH
Nature of the experiment: inhibitors of POS-1/mex-3 RNA binding, dose response, biochemical, fluorescence polarization (AID 1964).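 Further: purified POS-1 fused to maltose binding protein made in E. coli; potency of compounds blocking POS-1 binding to fluorescent RNA.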

Experiment [10] concerns the target T6, Zinc finger protein mex-5 (Caenorhabditis elegans, UniProt Q9XUB2).
T6 sequence (Q9XUB2 whole entry): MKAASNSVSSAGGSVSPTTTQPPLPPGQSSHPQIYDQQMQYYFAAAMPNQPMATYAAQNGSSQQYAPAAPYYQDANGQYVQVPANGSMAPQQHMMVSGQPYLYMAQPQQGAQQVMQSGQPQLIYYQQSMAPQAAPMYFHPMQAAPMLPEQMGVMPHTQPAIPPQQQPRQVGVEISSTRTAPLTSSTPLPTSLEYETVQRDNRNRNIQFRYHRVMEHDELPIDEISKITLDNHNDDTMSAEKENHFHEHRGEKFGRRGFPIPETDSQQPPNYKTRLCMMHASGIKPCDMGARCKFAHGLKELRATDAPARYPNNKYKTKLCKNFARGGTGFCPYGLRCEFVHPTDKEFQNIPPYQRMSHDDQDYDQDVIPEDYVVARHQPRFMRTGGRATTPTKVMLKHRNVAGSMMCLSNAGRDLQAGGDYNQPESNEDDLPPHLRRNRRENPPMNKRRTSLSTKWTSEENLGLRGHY
Nature of the experiment: MEX-5/TCR-2 RNA interaction inhibitors, dose response, biochemical, C. elegans, fluorescence polarization (AID 1960).

For experiment [11], the target named is T7, DNA repair protein RAD52 homolog (Homo sapiens, UniProt P43351).
T7 sequence (P43351 whole entry): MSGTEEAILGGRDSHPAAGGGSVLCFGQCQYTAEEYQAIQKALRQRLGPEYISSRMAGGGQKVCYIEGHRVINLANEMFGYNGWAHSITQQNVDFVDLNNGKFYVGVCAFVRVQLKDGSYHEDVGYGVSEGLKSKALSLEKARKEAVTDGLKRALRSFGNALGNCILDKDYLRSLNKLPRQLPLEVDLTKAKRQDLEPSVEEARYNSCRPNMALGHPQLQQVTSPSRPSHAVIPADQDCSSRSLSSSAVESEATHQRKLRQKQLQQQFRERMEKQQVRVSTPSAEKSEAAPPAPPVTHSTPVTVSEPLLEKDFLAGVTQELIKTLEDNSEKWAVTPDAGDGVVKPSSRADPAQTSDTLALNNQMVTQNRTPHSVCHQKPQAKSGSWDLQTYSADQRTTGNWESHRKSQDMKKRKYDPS
It counts as functional, biochemical.

The nature of experiment [12]: Luminescence Cell-Based Dose Retest to Confirm Inhibitors of Cancer Stem Cells. [Related pubchem assays (depositor defined):AID2717, AID2721]. Particulars: Homo sapiens. It counts as functional.
A short description of experiment [13]: Shn3 3'UTR reporter inhibitors, dose response, cell-based, Clone20 osteoblasts, firefly luciferase, cherry-picked (AID 624132).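 Further: firefly luciferase luminescence from reporter carrying the Shn3 3'UTR in osteoblasts.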 It counts as functional.
A short description of experiment [14]: control 3'UTR Renilla luciferase suppression, dose response, counter-screen for Shn3 inhibitor project, cell-based, Clone20-Shn3RL, cherry-picked (AID 624133). It counts as functional.

FAD-linked sulfhydryl oxidase ALR, sequence (P55789 whole entry): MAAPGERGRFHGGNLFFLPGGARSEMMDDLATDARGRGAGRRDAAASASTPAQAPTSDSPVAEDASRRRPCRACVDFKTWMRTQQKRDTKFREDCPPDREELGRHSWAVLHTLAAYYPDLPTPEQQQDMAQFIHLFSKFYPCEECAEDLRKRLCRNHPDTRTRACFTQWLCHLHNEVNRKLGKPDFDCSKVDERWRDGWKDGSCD
Large T antigen, sequence (P03070 whole entry): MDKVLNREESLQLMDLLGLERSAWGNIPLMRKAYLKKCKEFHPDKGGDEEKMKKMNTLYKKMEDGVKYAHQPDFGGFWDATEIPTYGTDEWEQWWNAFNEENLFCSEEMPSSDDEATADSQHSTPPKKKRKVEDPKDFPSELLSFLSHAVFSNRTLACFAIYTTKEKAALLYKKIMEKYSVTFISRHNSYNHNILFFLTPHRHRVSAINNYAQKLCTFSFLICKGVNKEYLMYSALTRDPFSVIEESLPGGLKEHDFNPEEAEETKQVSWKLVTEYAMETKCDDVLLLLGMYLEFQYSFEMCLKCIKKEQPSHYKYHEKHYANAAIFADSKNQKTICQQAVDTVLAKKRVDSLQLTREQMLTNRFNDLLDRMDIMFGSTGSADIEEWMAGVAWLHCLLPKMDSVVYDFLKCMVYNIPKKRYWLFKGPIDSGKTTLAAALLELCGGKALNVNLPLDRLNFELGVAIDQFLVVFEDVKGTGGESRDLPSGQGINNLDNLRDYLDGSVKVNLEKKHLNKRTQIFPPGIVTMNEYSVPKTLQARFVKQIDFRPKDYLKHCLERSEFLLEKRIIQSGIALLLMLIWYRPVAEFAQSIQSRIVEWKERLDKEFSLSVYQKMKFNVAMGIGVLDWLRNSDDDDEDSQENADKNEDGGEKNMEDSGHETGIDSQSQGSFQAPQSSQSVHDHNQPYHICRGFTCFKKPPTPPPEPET
Induced myeloid leukemia cell differentiation protein Mcl-1, sequence (Q07820 whole entry, the tested form may be a part): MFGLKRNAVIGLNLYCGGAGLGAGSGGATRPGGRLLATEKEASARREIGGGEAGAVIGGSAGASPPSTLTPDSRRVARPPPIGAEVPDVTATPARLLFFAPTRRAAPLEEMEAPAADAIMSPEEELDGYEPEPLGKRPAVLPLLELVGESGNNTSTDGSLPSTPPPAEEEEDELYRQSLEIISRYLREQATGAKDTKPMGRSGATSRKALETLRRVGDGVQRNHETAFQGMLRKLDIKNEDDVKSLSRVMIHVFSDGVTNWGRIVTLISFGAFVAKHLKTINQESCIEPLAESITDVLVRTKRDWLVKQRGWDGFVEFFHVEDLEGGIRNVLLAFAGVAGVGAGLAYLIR

Regarding `O=C1C=CC(=O)N1c1ccc2ccccc2c1`, the AC50 in experiment [1] was 0.832 µM (active).

As for `S=C(NCC1CCCO1)Nc1cc(Cl)c(Cl)cc1Cl` (stereo not given), in [2], the IC50 is 14.5 µM (active).

On to `Cc1ccc(-c2csc(NC(=O)c3cccc(C)c3)c2C(=O)O)cc1`, for which the IC50 in experiment [2] was 11.8 µM (active). As to `CC1(C)CC(=O)C(/C=N/c2ccc(O)cc2)=C(O)C1`, the IC50 in experiment [3] was 5.53 µM (active); in experiment [4], 17 µM (active). For the compound `CCOC(=O)c1[n-]c2ccccc2c1[N+]#N`, in [5], the EC50 was > 150 µM (not active). Besides, the AC50 in experiment [1] is 0.444 µM (active). For the compound `Cc1ccc(-c2nnc(S)n2/N=C/c2c(C)nn(-c3ccccc3)c2O)cc1`, the AC50 in experiment [6] was 13.5 µM (active). Consider `CN(C)c1ccc(NC(=O)Cn2ncn3c(cc4ccccc43)c2=O)cc1`, for which the figures for the IC50 in experiment [3] and in experiment [7] were 29.6 µM (active) and 3.14 µM (active), respectively. Turning to `O=C(CCn1cnc2ccccc21)N/N=C/c1ccc(O)cc1`, the IC50 was 14.2 µM (active) in [3] and 51.6 µM (active) in experiment [4].

With `Cc1ccc(C(=O)O)cc1NC(=S)NC(=O)c1ccc(COc2ccccc2)cc1`, the IC50 in experiment [2] was 15.5 µM (active); in experiment [8], 6.25 µM (active). As for `CC1CCCCC12NC(=O)N(CC(=O)Nc1ccc(S(=O)(=O)Nc3ncccn3)cc1)C2=O` (stereo not given), the AC50 in experiment [6] was 6.47 µM (active). For `Nc1ccc2c(c1)-c1ccccc1S(=O)(=O)N2`, the values for the EC50 in [9] and in experiment [10] were > 300 µM (not active) and 12.2 µM (active), respectively. The IC50 in experiment [3] is 3.99 µM (active). `CN1CCN(CCCCOc2ccccc2C=O)CC1`: the AC50 in [11] is 15.8 µM (active). As for `O=C(CC(n1cncn1)C(Cl)(Cl)Cl)c1ccc([N+](=O)[O-])cc1` (stereo not given), in experiment [1], the AC50 is 4.15 µM (active). `c1ccc(CCNc2c3c(nc4ncnn24)CCC3)cc1`: the IC50 in experiment [2] is 10.1 µM (active). Consider `CSc1nc(Cl)cc(Nc2ccc(O)cc2)n1`, for which the IC50 in experiment [3] is 17.8 µM (active). For `COc1cc(-c2cnc3c(NC=O)cc(-c4ccc(N5CCN(C)CC5)cc4)cn23)cc(OC)c1OC`, the AC50 in [11] was 4.54 µM (active). For `COc1cc(C(=O)NC2CC(C)(C)CC(C)(C)C2)ccc1OC1CCN(C(C)=O)CC1`, the IC50 in experiment [2] is 13.8 µM (active). Same read-out and setting: in the case of `CCOC(=O)c1sc(NC(=O)CCN2C(=O)c3cccc([N+](=O)[O-])c3C2=O)c(C(=O)OCC)c1C` it was 5.98 µM (active). As to `COc1cc(C#Cc2c(-c3cncn3C)n(C)c3ccc(-c4ccc(OC)nc4)cc23)cc(OC)c1`, the AC50 in [12] was 4.95 µM (active); in experiment [1], 5.5 µM (active); in experiment [13], 20.5 µM (active); in [14], 21.2 µM (active). Take `COc1ccc(C2=CC3=C(Br)C(=O)C(C)(OC(=O)c4ccc(Cl)nc4)C(=O)C3=CO2)cc1` (stereo not given): the EC50 in experiment [9] and in experiment [10] was > 300 µM (not active) in each case. Further, the IC50 in [3] is 56.7 µM (active). On to `COc1ccc(C(=O)NNS(=O)(=O)c2ccc(OC)cc2)cc1`, for which the AC50 in experiment [6] is 12.7 µM (active). Take `C=C(C)CSc1nnc(CCCCCNC(=O)OC(C)(C)C)o1`: the IC50 in experiment [2] was 6.92 µM (active). Regarding `CC(NC(=O)C1CC1)C(c1cccs1)N1CCN(c2ccccc2)CC1` (stereo not given), the AC50 in experiment [6] was 0.362 µM (active). Same read-out and setting: as for `CC[C@@H](C)[C@H](NC(=O)Cc1c(C)c2cc3c(C)coc3c(C)c2oc1=O)C(=O)O`, the figure is 2.39 µM (active). Consider `O=C1NC(=O)N(c2ccccc2)C(=O)/C1=C\c1ccc2c3c(cccc13)CC2`, for which the EC50 in experiment [9] and in experiment [10] was > 300 µM (not active) each time. Moreover, the IC50 in [3] was 68.4 µM (active); in experiment [7], 5.04 µM (active).
